In US11542304B2, “Multimeric bicyclic peptide ligands” (BicycleTx Limited, priority 2018, dated 2023):
pEC50: −log10 of the molar value. Starred links: 1 amine or outer side, 2 acyl side, 3 side chain; linkers in the order of their positions; H or OH if unused. Positions of bridges follow the written chain, without caps; N, C: chain ends. Non-standard residues stand in square brackets, D forms with d. Chains are numbered I, II in the order given. X2 = O=C(CCOCCN(CCOCCC(=O)NCCOCCOCCOCCOCCOCCOCCOCCOCCOCCOCCOCCOCCOCCOCCOCCOCCOCCOCCOCCOCCOCCOCCOCCn1nnc2c1CCC1C(CC2)C1COC(=O)[*:2])CCOCCC(=O)NCCOCCOCCOCCOCCOCCOCCOCCOCCOCCOCCOCCOCCOCCOCCOCCOCCOCCOCCOCCOCCOCCOCCOCCn1nnc2c1CCC1C(CC2)C1COC(=O)[*:3])NCCOCCOCCOCCOCCOCCOCCOCCOCCOCCOCCOCCOCCOCCOCCOCCOCCOCCOCCOCCOCCOCCOCCOCCn1nnc2c1CCC1C(CC2)C1COC(=O)[*:1]; X3 = O=C(CCOCCN(CCOCCC(=O)NCCOCCOCCOCCOCCOCCOCCOCCOCCOCCOCCn1nnc2c1CCC1C(CC2)C1COC(=O)[*:2])CCOCCC(=O)NCCOCCOCCOCCOCCOCCOCCOCCOCCOCCOCCn1nnc2c1CCC1C(CC2)C1COC(=O)[*:3])NCCOCCOCCOCCOCCOCCOCCOCCOCCOCCOCCn1nnc2c1CCC1C(CC2)C1COC(=O)[*:1]; TATA = O=C(CC[*:1])N1CN(C(=O)CC[*:2])CN(C(=O)CC[*:3])C1; Nle = CCCC[C@H](N)C(=O)O

Key:
[1] = biological target: CD137 (Homo sapiens, UniProt Q07011); experiment: CD137 Promega reporter cell activity assay (NF-κB luciferase in Jurkat cells); settings: for Average Fold EC50 Improvement relative to CD137L: Average EC50 for CD137L = 14.2 nM; for Average Relative Fold Induction relative to CD137L: Average fold induction for CD137L = 4.0
CD137, sequence (Q07011 24-255): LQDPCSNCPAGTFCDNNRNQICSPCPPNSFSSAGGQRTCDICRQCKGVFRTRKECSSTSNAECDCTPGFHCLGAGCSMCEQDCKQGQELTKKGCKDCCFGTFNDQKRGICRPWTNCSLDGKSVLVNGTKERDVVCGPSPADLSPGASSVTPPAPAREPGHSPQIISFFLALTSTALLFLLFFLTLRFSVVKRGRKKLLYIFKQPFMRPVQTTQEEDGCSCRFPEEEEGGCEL

[2] = clinical testing; cited from earlier work

Compound	Average Fold EC50 Improvement relative to CD137L [1]	Average Relative Fold Induction relative to CD137L [1]	other results
CCCC[C@@H]1NC(=O)[C@H](Cc2ccc(O)cc2)NC(=O)[C@@H]2CCCN2C(=O)[C@H](CC(=O)O)NC(=O)[C@H](C)NC(=O)[C@H](CCCCNC(=O)OCC2C3CCc4nnn(CCOCCOCCOCCOCCOCCOCCOCCOCCOCCOCCOCCOCCOCCOCCOCCOCCOCCOCCOCCOCCOCCOCCOCCNC(=O)CCOCC(COCCC(=O)NCCOCCOCCOCCOCCOCCOCCOCCOCCOCCOCCOCCOCCOCCOCCOCCOCCOCCOCCOCCOCCOCCOCCOCCn5nnc6c5CCC5C(CC6)C5COC(=O)NCCCC[C@@H]5NC(=O)[C@@H]6CSCCC(=O)N7CN(CN(C7)C(=O)CCSC[C@@H](C(=O)N[C@@H](C)C(N)=O)NC(=O)[C@H](CCCC)NC(=O)[C@H](Cc7ccc(O)cc7)NC(=O)[C@@H]7CCCN7C(=O)[C@H](CC(=O)O)NC(=O)[C@H](C)NC5=O)C(=O)CCSC[C@H](NC(=O)[C@H](C)NC(C)=O)C(=O)N[C@@H]([C@@H](C)CC)C(=O)N[C@@H](CCC(=O)O)C(=O)N[C@@H](CCC(=O)O)C(=O)NCC(=O)N[C@@H](CCC(N)=O)C(=O)N[C@@H](Cc5ccc(O)cc5)C(=O)N6)(COCCC(=O)NCCOCCOCCOCCOCCOCCOCCOCCOCCOCCOCCOCCOCCOCCOCCOCCOCCOCCOCCOCCOCCOCCOCCOCCn5nnc6c5CCC5C(CC6)C5COC(=O)NCCCC[C@@H]5NC(=O)[C@@H]6CSCCC(=O)N7CN(CN(C7)C(=O)CCSC[C@@H](C(=O)N[C@@H](C)C(N)=O)NC(=O)[C@H](CCCC)NC(=O)[C@H](Cc7ccc(O)cc7)NC(=O)[C@@H]7CCCN7C(=O)[C@H](CC(=O)O)NC(=O)[C@H](C)NC5=O)C(=O)CCSC[C@H](NC(=O)[C@H](C)NC(C)=O)C(=O)N[C@@H]([C@@H](C)CC)C(=O)N[C@@H](CCC(=O)O)C(=O)N[C@@H](CCC(=O)O)C(=O)NCC(=O)N[C@@H](CCC(N)=O)C(=O)N[C@@H](Cc5ccc(O)cc5)C(=O)N6)COCCC(=O)NCCOCCOCCOCCOCCOCCOCCOCCOCCOCCOCCOCCOCCOCCOCCOCCOCCOCCOCCOCCOCCOCCOCCOCCn5nnc6c5CCC5C(CC6)C5COC(=O)NCCCC[C@@H]5NC(=O)[C@@H]6CSCCC(=O)N7CN(CN(C7)C(=O)CCSC[C@@H](C(=O)N[C@@H](C)C(N)=O)NC(=O)[C@H](CCCC)NC(=O)[C@H](Cc7ccc(O)cc7)NC(=O)[C@@H]7CCCN7C(=O)[C@H](CC(=O)O)NC(=O)[C@H](C)NC5=O)C(=O)CCSC[C@H](NC(=O)[C@H](C)NC(C)=O)C(=O)N[C@@H]([C@@H](C)CC)C(=O)N[C@@H](CCC(=O)O)C(=O)N[C@@H](CCC(=O)O)C(=O)NCC(=O)N[C@@H](CCC(N)=O)C(=O)N[C@@H](Cc5ccc(O)cc5)C(=O)N6)c4CCC32)NC(=O)[C@@H]2CSCCC(=O)N3CN(CN(C3)C(=O)CCSC[C@@H](C(=O)N[C@@H](C)C(N)=O)NC1=O)C(=O)CCSC[C@H](NC(=O)[C@H](C)NC(C)=O)C(=O)N[C@@H]([C@@H](C)CC)C(=O)N[C@@H](CCC(=O)O)C(=O)N[C@@H](CCC(=O)O)C(=O)NCC(=O)N[C@@H](CCC(N)=O)C(=O)N[C@@H](Cc1ccc(O)cc1)C(=O)N2 (some centres unmarked) [BCY8148]	18.71	1.20	–
CCCC[C@@H]1NC(=O)[C@H](Cc2ccc(O)cc2)NC(=O)[C@@H]2CCCN2C(=O)[C@H](CC(=O)O)NC(=O)[C@H](C)NC(=O)[C@H](Cc2ccccc2)NC(=O)[C@@H]2CSCCC(=O)N3CN(CN(C3)C(=O)CCSC[C@@H](C(=O)N[C@@H](C)C(N)=O)NC1=O)C(=O)CCSC[C@H](NC(=O)[C@H](C)NC(=O)OCC1C3CCc4nnn(CCOCCOCCOCCOCCOCCOCCOCCOCCOCCOCCOCCOCCOCCOCCOCCOCCOCCOCCOCCOCCOCCOCCOCCNC(=O)CCOCC(COCCC(=O)NCCOCCOCCOCCOCCOCCOCCOCCOCCOCCOCCOCCOCCOCCOCCOCCOCCOCCOCCOCCOCCOCCOCCOCCn5nnc6c5CCC5C(CC6)C5COC(=O)N[C@@H](C)C(=O)N[C@H]5CSCCC(=O)N6CN7CN(C6)C(=O)CCSC[C@H](NC(=O)[C@H](Cc6ccc(O)cc6)NC(=O)[C@H](CCC(N)=O)NC(=O)CNC(=O)[C@H](CCC(=O)O)NC(=O)[C@H](CCC(=O)O)NC(=O)[C@H]([C@@H](C)CC)NC5=O)C(=O)N[C@@H](Cc5ccccc5)C(=O)N[C@@H](C)C(=O)N[C@@H](CC(=O)O)C(=O)N5CCC[C@H]5C(=O)N[C@@H](Cc5ccc(O)cc5)C(=O)N[C@@H](CCCC)C(=O)N[C@H](C(=O)N[C@@H](C)C(N)=O)CSCCC7=O)(COCCC(=O)NCCOCCOCCOCCOCCOCCOCCOCCOCCOCCOCCOCCOCCOCCOCCOCCOCCOCCOCCOCCOCCOCCOCCOCCn5nnc6c5CCC5C(CC6)C5COC(=O)N[C@@H](C)C(=O)N[C@H]5CSCCC(=O)N6CN7CN(C6)C(=O)CCSC[C@H](NC(=O)[C@H](Cc6ccc(O)cc6)NC(=O)[C@H](CCC(N)=O)NC(=O)CNC(=O)[C@H](CCC(=O)O)NC(=O)[C@H](CCC(=O)O)NC(=O)[C@H]([C@@H](C)CC)NC5=O)C(=O)N[C@@H](Cc5ccccc5)C(=O)N[C@@H](C)C(=O)N[C@@H](CC(=O)O)C(=O)N5CCC[C@H]5C(=O)N[C@@H](Cc5ccc(O)cc5)C(=O)N[C@@H](CCCC)C(=O)N[C@H](C(=O)N[C@@H](C)C(N)=O)CSCCC7=O)COCCC(=O)NCCOCCOCCOCCOCCOCCOCCOCCOCCOCCOCCOCCOCCOCCOCCOCCOCCOCCOCCOCCOCCOCCOCCOCCn5nnc6c5CCC5C(CC6)C5COC(=O)N[C@@H](C)C(=O)N[C@H]5CSCCC(=O)N6CN7CN(C6)C(=O)CCSC[C@H](NC(=O)[C@H](Cc6ccc(O)cc6)NC(=O)[C@H](CCC(N)=O)NC(=O)CNC(=O)[C@H](CCC(=O)O)NC(=O)[C@H](CCC(=O)O)NC(=O)[C@H]([C@@H](C)CC)NC5=O)C(=O)N[C@@H](Cc5ccccc5)C(=O)N[C@@H](C)C(=O)N[C@@H](CC(=O)O)C(=O)N5CCC[C@H]5C(=O)N[C@@H](Cc5ccc(O)cc5)C(=O)N[C@@H](CCCC)C(=O)N[C@H](C(=O)N[C@@H](C)C(N)=O)CSCCC7=O)c4CCC31)C(=O)N[C@@H]([C@@H](C)CC)C(=O)N[C@@H](CCC(=O)O)C(=O)N[C@@H](CCC(=O)O)C(=O)NCC(=O)N[C@@H](CCC(N)=O)C(=O)N[C@@H](Cc1ccc(O)cc1)C(=O)N2 (some centres unmarked) [BCY8149]	140.06	0.93	–
CCCC[C@@H]1NC(=O)[C@H](Cc2ccc(O)cc2)NC(=O)[C@@H]2CCCN2C(=O)[C@H](CC(=O)O)NC(=O)[C@H](C)NC(=O)[C@H](Cc2ccccc2)NC(=O)[C@@H]2CSCCC(=O)N3CN(CN(C3)C(=O)CCSC[C@@H](C(=O)N[C@@H](C)C(N)=O)NC1=O)C(=O)CCSC[C@H](NC(=O)[C@H](C)NC(C)=O)C(=O)N[C@@H]([C@@H](C)CC)C(=O)N[C@@H](CCC(=O)O)C(=O)N[C@@H](CCCCNC(=O)OCC1C3CCc4nnn(CCOCCOCCOCCOCCOCCOCCOCCOCCOCCOCCNC(=O)CCOCC(COCCC(=O)NCCOCCOCCOCCOCCOCCOCCOCCOCCOCCOCCn5nnc6c5CCC5C(CC6)C5COC(=O)NCCCC[C@@H]5NC(=O)[C@H](CCC(=O)O)NC(=O)[C@H]([C@@H](C)CC)NC(=O)[C@@H](NC(=O)[C@H](C)NC(C)=O)CSCCC(=O)N6CN7CN(C6)C(=O)CCSC[C@H](NC(=O)[C@H](Cc6ccc(O)cc6)NC(=O)[C@H](CCC(N)=O)NC(=O)CNC5=O)C(=O)N[C@@H](Cc5ccccc5)C(=O)N[C@@H](C)C(=O)N[C@@H](CC(=O)O)C(=O)N5CCC[C@H]5C(=O)N[C@@H](Cc5ccc(O)cc5)C(=O)N[C@@H](CCCC)C(=O)N[C@H](C(=O)N[C@@H](C)C(N)=O)CSCCC7=O)(COCCC(=O)NCCOCCOCCOCCOCCOCCOCCOCCOCCOCCOCCn5nnc6c5CCC5C(CC6)C5COC(=O)NCCCC[C@@H]5NC(=O)[C@H](CCC(=O)O)NC(=O)[C@H]([C@@H](C)CC)NC(=O)[C@@H](NC(=O)[C@H](C)NC(C)=O)CSCCC(=O)N6CN7CN(C6)C(=O)CCSC[C@H](NC(=O)[C@H](Cc6ccc(O)cc6)NC(=O)[C@H](CCC(N)=O)NC(=O)CNC5=O)C(=O)N[C@@H](Cc5ccccc5)C(=O)N[C@@H](C)C(=O)N[C@@H](CC(=O)O)C(=O)N5CCC[C@H]5C(=O)N[C@@H](Cc5ccc(O)cc5)C(=O)N[C@@H](CCCC)C(=O)N[C@H](C(=O)N[C@@H](C)C(N)=O)CSCCC7=O)COCCC(=O)NCCOCCOCCOCCOCCOCCOCCOCCOCCOCCOCCn5nnc6c5CCC5C(CC6)C5COC(=O)NCCCC[C@@H]5NC(=O)[C@H](CCC(=O)O)NC(=O)[C@H]([C@@H](C)CC)NC(=O)[C@@H](NC(=O)[C@H](C)NC(C)=O)CSCCC(=O)N6CN7CN(C6)C(=O)CCSC[C@H](NC(=O)[C@H](Cc6ccc(O)cc6)NC(=O)[C@H](CCC(N)=O)NC(=O)CNC5=O)C(=O)N[C@@H](Cc5ccccc5)C(=O)N[C@@H](C)C(=O)N[C@@H](CC(=O)O)C(=O)N5CCC[C@H]5C(=O)N[C@@H](Cc5ccc(O)cc5)C(=O)N[C@@H](CCCC)C(=O)N[C@H](C(=O)N[C@@H](C)C(N)=O)CSCCC7=O)c4CCC31)C(=O)NCC(=O)N[C@@H](CCC(N)=O)C(=O)N[C@@H](Cc1ccc(O)cc1)C(=O)N2 (some centres unmarked) [BCY8150]	4.14	0.77	–
ACIEEGQYCFADPYMCA [BCY592, reference compound]	–	–	CD137 agonism / activation in reporter cells (in words) ([1]; FIGS. 1 to 3 and 15): no detectable activity
CD137L: the natural ligand (CD137L) for activation of CD137	–	–	pEC50 ([1]; read-out: Average EC50, reference substance of Table 4A / 4B): 7.85; Average fold induction ([1]; reference substance of Table 4A / 4B): **Average fold induction for CD137L = 4.0
I: Ac-ACIEEGKYCFADPY[Nle]CA-NH2 / II: Ac-ACIEEGKYCFADPY[Nle]CA-NH2 / III: Ac-ACIEEGKYCFADPY[Nle]CA-NH2 (linker I:2-I:9-I:16, II:2-II:9-II:16, III:2-III:9-III:16 via TATA; linker I:7-II:7-III:7 via X3) [BCY8151]	213.05	0.49	–
I: Ac-ACIEEGQYCKADPY[Nle]CA-NH2 / II: Ac-ACIEEGQYCKADPY[Nle]CA-NH2 / III: Ac-ACIEEGQYCKADPY[Nle]CA-NH2 (linker I:2-I:9-I:16, II:2-II:9-II:16, III:2-III:9-III:16 via TATA; linker I:10-II:10-III:10 via X2) [BCY8146]	5.11	0.83	–
I: Ac-ACIEEGQYCKADPY[Nle]CA-NH2 / II: Ac-ACIEEGQYCKADPY[Nle]CA-NH2 / III: Ac-ACIEEGQYCKADPY[Nle]CA-NH2 (linker I:2-I:9-I:16, II:2-II:9-II:16, III:2-III:9-III:16 via TATA; linker I:10-II:10-III:10 via X3) [BCY8145]	5.93	0.95	–
urelumab	–	–	doses at which hepatoxicity was observed [2]: ≥ 1 mg/kg; single agent activity [2]: single agent, partial responses in melanoma
